Test system: bacterial production of odoriferous steroids
Experiment: sub-lethal inhibition of the bacterial production of odoriferous steroids
Format: cell-based

`CC(C)(C)NC(=O)[C@H]1CC[C@H]2[C@@H]3CC[C@H]4NC(=O)C=C[C@]4(C)[C@H]3CC[C@]12C` [finasteride] was tested, and the “sub-lethally inhibiting the bacterial production of odoriferous steroids” value was “incapable of sub-lethally inhibiting”.

— patent US6540988B1, “Method of reducing or preventing malodour” (Quest International B.V., priority 1998, dated 2003)
